In patent US20120283216A1, “FUNGICIDAL 2-(BICYCLIC ARYLOXY)CARBOXAMIDES” (priority 2009, published 2012):

Legend:
Assay type in all cases: in vivo
[1] = system: Blumeria graminis f. sp. tritici; assay: Test A: wheat powdery mildew, preventive spray on wheat seedlings, visual disease rating; conditions: preventive spray at 40 ppm, rated 8 days after inoculation; for pest or weed control at 40 ppm: Blumeria graminis, 192 h, read-out: Test A disease control rating (100 = 100% disease control, 0 = no disease control relative to the controls)
Source text: General protocol for preparing test suspensions for Tests A-C: the test compounds were first dissolved in acetone in an amount equal to 11% of the final volume and then suspended at the desired concentration (in ppm) in acetone and purified water (50/50 mix by volume) containing 250 ppm of the surfactant Trem® 014 (polyhydric alcohol esters). The resulting test suspensions were then used in Tests A-C. Spraying a 40 ppm test suspension to the point of run-off on the test plants was the equivalent of a rate of 800 g/ha. The test suspension was sprayed to the point of run-off on wheat seedlings. The following day the seedlings were inoculated with a spore dust of Blumeria graminis f. sp. tritici, (the causal agent of wheat powdery mildew) and incubated in a growth chamber at 20° C. for 8 days, after which time disease ratings were visually made. Results for Tests A-C are given in Table A. In the Table, a rating of 100 indicates 100% disease control and a rating of 0 indicates no disease control (relative to the controls). A dash (-) indicates no test results. All results are from applications of 40 ppm.

Septoria tritici = assay: Test B: wheat leaf blotch, preventive spray on wheat seedlings, visual disease rating; conditions: preventive spray at 40 ppm, rated after 48 h + 19 days; for pest or weed control at 40 ppm: Zymoseptoria tritici, 504 h, read-out: Test B disease control rating (100 = 100% disease control, 0 = no disease control relative to the controls)
Source text: General protocol for preparing test suspensions for Tests A-C: the test compounds were first dissolved in acetone in an amount equal to 11% of the final volume and then suspended at the desired concentration (in ppm) in acetone and purified water (50/50 mix by volume) containing 250 ppm of the surfactant Trem® 014 (polyhydric alcohol esters). The resulting test suspensions were then used in Tests A-C. Spraying a 40 ppm test suspension to the point of run-off on the test plants was the equivalent of a rate of 800 g/ha. The test suspension was sprayed to the point of run-off on wheat seedlings. The following day the seedlings were inoculated with a spore suspension of Septoria tritici (the causal agent of wheat leaf blotch) and incubated in a saturated atmosphere at 20° C. for 48 h, and then moved to a growth chamber at 20° C. for 19 days, after which time disease ratings were visually made. Results for Tests A-C are given in Table A. In the Table, a rating of 100 indicates 100% disease control and a rating of 0 indicates no disease control (relative to the controls). A dash (-) indicates no test results. All results are from applications of 40 ppm.

Botrytis cinerea = assay: Test C: tomato botrytis, preventive spray on tomato seedlings, visual disease rating; conditions: preventive spray at 40 ppm, rated after 48 h + 3 days; for pest or weed control at 40 ppm: Botrytis cinerea, 120 h, read-out: Test C disease control rating (100 = 100% disease control, 0 = no disease control relative to the controls)
Source text: General protocol for preparing test suspensions for Tests A-C: the test compounds were first dissolved in acetone in an amount equal to 11% of the final volume and then suspended at the desired concentration (in ppm) in acetone and purified water (50/50 mix by volume) containing 250 ppm of the surfactant Trem® 014 (polyhydric alcohol esters). The resulting test suspensions were then used in Tests A-C. Spraying a 40 ppm test suspension to the point of run-off on the test plants was the equivalent of a rate of 800 g/ha.
The test suspension was sprayed to the point of run-off on tomato seedlings. The following day the seedlings were inoculated with a spore suspension of Botrytis cinerea (the causal agent of tomato botrytis) and incubated in saturated atmosphere at 20° C. for 48 h, and then moved to a growth chamber at 27° C. for 3 additional days, after which time disease ratings were visually made.
Results for Tests A-C are given in Table A. In the Table, a rating of 100 indicates 100% disease control and a rating of 0 indicates no disease control (relative to the controls). A dash (-) indicates no test results. All results are from applications of 40 ppm.

Structure (SMILES)	Test A disease control rating (100 = 100% disease control, 0 = no disease control relative to the controls) [1] [%]	Test B disease control rating (100 = 100% disease control, 0 = no disease control relative to the controls) (Septoria tritici) [%]	Test C disease control rating (100 = 100% disease control, 0 = no disease control relative to the controls) (Botrytis cinerea) [%]	pest or weed control at 40 ppm [1] [%]	pest or weed control at 40 ppm (Septoria tritici) [%]	pest or weed control at 40 ppm (Botrytis cinerea) [%]
C#CC(C)(C)NC(=O)C(OC)Oc1ccc2ccc(OC)cc2c1 (stereo not shown) [Compound 82]	96	99	100			
CCC(Oc1ccc2ccc(C(F)F)cc2c1)C(=O)NC(C)(C)C#N (stereo not shown) [Compound 77]	0	99	67			
CCOC(Oc1ccc2ccc(Br)cc2c1)C(=O)NC(C)(C)COC (stereo not shown) [Compound 118]	0	97	97			
COC(Oc1ccc2ccc(I)cc2c1)C(=O)NC(C)(C)C#N (stereo not shown) [Compound 104]	94	100	99			
C#CC(C)(C)NC(=O)C(CC)Oc1ccc2ccc(C(F)F)cc2c1 (stereo not shown) [Compound 78]	81	88	99			
CCC(Oc1cc2cc(F)ccc2cn1)C(=O)NC(C)(C)C (stereo not shown) [Compound 66]	79	0	88			
C#CCOc1ccc2ccc(OC(OC)C(=O)NC(C)(C)C)cc2c1 (stereo not shown) [Compound 131]	68	100	100			
C#CCOc1ccc2ccc(OC(CC)C(=O)NC(C)(C)C#C)cc2c1 (stereo not shown) [Compound 135]	0	98	99			
CCC(Oc1cnc2ccc(I)cc2c1)C(=O)NC(C)(C)COC (single isomer, unassigned) [Compound 62]	0	0	7			
CCC(Oc1cnc2ccc(Br)cc2c1)C(=O)NC(C)(C)CO (stereo not shown) [Compound 39]	21	0	33			
CCC(Oc1cnc2ccc(Cl)cc2c1)C(=O)NC(C)(C)CO (stereo not shown) [Compound 42]	0	0	0			
CCC(Oc1ccc2ccc(Br)cc2c1)C(=O)NC(C)(C)CC (stereo not shown) [Compound 102]	0	96	61			
C#Cc1ccc2ccc(OC(OC)C(=O)NC(C)(C)COC)cc2c1 (stereo not shown) [Compound 106, 2-[(7-ethynyl-2-naphthalenyl)oxy]-2-methoxy-N-(2-methoxy-1,1-dimethylethyl)acetamide]				100	100	99
C#CC(C)(C)NC(=O)C(OCC)Oc1ccc2ccc(OCC)cc2c1 (stereo not shown) [Compound 122]	0	100	98			
CC#Cc1ccc2ncc(OC(OC)C(=O)NC(C)(C)C)cc2c1 (stereo not shown) [Compound 156, N-(1,1-dimethylethyl)-2-methoxy-2-[[6-(1-propyn-1-yl)-3-quinolinyl]oxy]-acetamide]				98	96	99
C#CC(C)(C)NC(=O)C(COC)Oc1cnc2ccc(Br)cc2c1 (stereo not shown) [Compound 36]	0	89	36			
CCC(Oc1ccc2ccc(O)cc2c1)C(=O)NC(C)(C)C (stereo not shown) [Compound 89]				0	63	86
CCc1ccc2ccc(OC(CC)C(=O)NC(C)(C)COC)cc2c1 (stereo not shown) [Compound 138, 2-[(7-ethyl-2-naphthalenyl)oxy]-N-(2-methoxy-1,1-dimethylethyl)-butanamide]				99	83	100
CCC(Oc1ccc2ccc(OCOC)cc2c1)C(=O)NC(C)(C)C#N (stereo not shown) [Compound 72]	0	99	100			
COCC(C)(C)NC(=O)C(C)Oc1cnc2ccc(I)cc2c1 (stereo not shown) [Compound 59, 2-[(6-iodo-3-quinolinyl)oxy]-N-(2-methoxy-1,1-dimethylethyl)propanamide]				0	95	99
CCC(Oc1cnc2ccc(Cl)cc2c1)C(=O)NC(C)(C)COC (stereo not shown) [Compound 49]	96	99	98			
CCC(Oc1cnc2ccc(I)cc2c1)C(=O)NC(C)(C)C (stereo not shown) [Compound 51, N-(1,1-dimethylethyl)-2-[(6-iodo-3-quinolinyl)oxy]butanamide]				93	100	99
COC(Oc1ccc2ccc(Br)cc2c1)C(=O)NC(C)(C)CO (stereo not shown) [Compound 98]	64		99			
COC(Oc1ccc2ccc(Br)cc2c1)C(=O)NC(C)(C)C (stereo not shown) [Compound 100]				100		99
C#Cc1ccc2ncc(OC(CC)C(=O)NC(C)(C)COC)cc2c1 (stereo not shown) [Compound 148]	100		100			
COCOCC(C)(C)NC(=O)C(OC)Oc1ccc2ccc(Br)cc2c1 (stereo not shown) [Compound 99]	96		100			
C#CC(C)(C)NC(=O)C(CC)Oc1ccc2ccc(Br)cc2c1 (stereo not shown) [Compound 31]	100		100			
